Source: ChEMBL document CHEMBL6121041, “Design and synthesis of isatin derivative payloaded peptide-drug conjugate as tubulin inhibitor against colorectal cancer” (Eur J Med Chem, 2025)
Activity calls are given as the source filed them. The calls are words filed in the database; no cut-off is given here. Residues, ends and D or L forms follow the SMILES beside them. *: point of attachment. X1 = COc1ccc(CN2C(=O)C(=O)c3cc(-c4ccc(OC(=O)CCC(=O)*)cc4)ccc32)cc1

Legend:
[1] = system: HCT-116; experiment: Induction of apoptosis in human HCT-116 cells assessed as increase in caspase-3 activation level at 0.8 uM measured after 24 hrs by Western blot analysis; type: functional, cell-based
[2] = system: HCT-116; experiment: Inhibition of colony formation in human HCT-116 cells at 0.4 to 0.8 uM measured after 10 days by crystal violet staining based inverted microscopic analysis; type: functional, cell-based; conditions: dose 0.4-0.8 µM, time 10.0 day
[3] = system: HCT-116; experiment: Inhibition of beta-tubulin expression in human HCT-116 cells at 0.8 uM incubated for 24 hrs by Western blot analysis; type: functional, cell-based
[4] = system: HCT-116; experiment: Induction of apoptosis in human HCT-116 cells assessed as increase in PARP cleavage at 0.2 to 0.8 uM incubated for 24 hrs by Western blot analysis; type: functional, cell-based; conditions: dose 0.2-0.8 µM
[5] = system: HCT-116; experiment: Induction of apoptosis in human HCT-116 cells assessed as downregulation of Bcl-2 protein at 0.8 uM measured after 24 hrs by Western blot analysis; type: functional, cell-based
[6] = system: HepG2; experiment: Antiproliferative activity against human HepG2 cells assessed as reduction in cell viability incubated for 48 hrs by MTT assay; type: functional, cell-based; conditions: HepG2, 48 h
[7] = system: HCT-116; experiment: Induction of apoptosis in human HCT-116 cells assessed as upregulation of Bax protein at 0.2 to 0.8 uM measured within 24 hrs by Western blot analysis; type: functional, cell-based; conditions: dose 0.2-0.8 µM
[8] = system: K562; experiment: Antiproliferative activity against human K562 cells assessed as reduction in cell viability incubated for 48 hrs by MTT assay; type: functional, cell-based; conditions: K562, 48 h
[9] = Cytotoxicity against HK-2 cells assessed as reduction in cell viability incubated for 48 hrs by MTT assay; type: toxicity, cell-based; conditions: human
[10] = system: HCT-116; experiment: Inhibition of wound closure in human HCT-116 cells at 0.4 uM measured after 48 hrs by wound healing assay; type: functional, cell-based
[11] = system: HCT-116; experiment: Induction of apoptosis in human HCT-116 cells at 0.4 to 0.8 uM incubated for 24 hrs by Annexin V-FITC/PI staining based flow cytometric analysis; type: functional, cell-based; conditions: dose 0.4-0.8 µM
[12] = system: 786-0; experiment: Antiproliferative activity against human 786-0 cells assessed as reduction in cell viability incubated for 48 hrs by MTT assay; type: functional, cell-based; conditions: 786-0, 48 h
[13] = system: HCT-116; experiment: Induction of apoptosis in human HCT-116 cells assessed as downregulation of Bcl-2 protein at 0.2 to 0.8 uM measured within 24 hrs by Western blot analysis; type: functional, cell-based; conditions: dose 0.2-0.8 µM
[14] = system: HCT-116; experiment: Cell cycle arrest in human HCT-116 cells assessed as decrease in CDK1 expression at 0.8 uM incubated for 24 hrs by Western blot analysis; type: functional, cell-based
[15] = system: HCT-116; experiment: Antitumor activity against human HCT-116 cells xenografted in SPF-grade Balb/c nude mouse model assessed as tumor growth inhibition at 45.17 mg/kg, ip administered daily for 11 days relative to control; type: functional; conditions: HCT-116, 264 h, time 11 day, read-out: TGI
[16] = system: HCT-116; experiment: Cell cycle arrest in human HCT-116 cells assessed as increase in p53 expression at 0.8 uM incubated for 24 hrs by Western blot analysis; type: functional, cell-based
[17] = system: HCT-116; experiment: Induction of apoptosis in human HCT-116 cells assessed as upregulation of Bax protein at 0.8 uM measured after 24 hrs by Western blot analysis; type: functional, cell-based
[18] = system: HCT-116; experiment: Inhibition of beta-tubulin expression in human HCT-116 cells at 0.2 to 0.8 uM incubated for 24 hrs by Western blot analysis; type: functional, cell-based; conditions: dose 0.2-0.8 µM
[19] = system: HCT-116; experiment: Cell cycle arrest in human HCT-116 cells assessed as increase in p21 expression at 0.2 to 0.8 uM incubated for 24 hrs by Western blot analysis; type: functional, cell-based; conditions: dose 0.2-0.8 µM
[20] = Toxicity in SPF-grade Balb/c nude mouse xenografted with human HCT-116 cells assessed as average body weight at 12 mg/kg, ip measured after 10 days; type: organism-based; conditions: in vivo, 240 h, time 10 day
[21] = system: HCC827; experiment: Antiproliferative activity against human HCC827 cells assessed as reduction in cell viability incubated for 48 hrs by MTT assay; type: functional, cell-based; conditions: HCC827, 48 h
[22] = system: HCT-116; experiment: Cell cycle arrest in human HCT-116 cells assessed as accumulation of cells at G2/M phase by measuring increase in cyclin B1 expression at 0.2 to 0.8 uM incubated for 24 hrs by Western blot analysis; type: functional, cell-based; conditions: dose 0.2-0.8 µM
[23] = system: HCT-116; experiment: Antiproliferative activity against human HCT-116 cells assessed as reduction in cell viability incubated for 48 hrs by MTT assay; type: functional, cell-based; conditions: HCT-116, 48 h
[24] = system: HCT-116; experiment: Cell cycle arrest in human HCT-116 cells assessed as increase in cyclin B1 expression at 0.8 uM incubated for 24 hrs by Western blot analysis; type: functional, cell-based
[25] = system: HCT-116; experiment: Induction of apoptosis in human HCT-116 cells assessed as cell fragmentation at 0.4 to 0.8 microM measured after 24 hrs by microscopic analysis; type: functional, cell-based; conditions: dose 0.4-0.8 µM
[26] = system: HCT-116; experiment: Cell cycle arrest in human HCT-116 cells assessed as accumulation of cells at G2/M phase by measuring decrease in CDK1 expression at 0.2 to 0.8 uM incubated for 24 hrs by Western blot analysis; type: functional, cell-based; conditions: dose 0.2-0.8 µM
[27] = system: HCT-116; experiment: Cell cycle arrest in human HCT-116 cells assessed as increase in p53 expression at 0.2 to 0.8 uM incubated for 24 hrs by Western blot analysis; type: functional, cell-based; conditions: dose 0.2-0.8 µM
[28] = system: HCT-116; experiment: Antitumor activity against human HCT-116 cells xenografted in SPF-grade Balb/c nude mouse model assessed as reduction in tumor size at 12 mg/kg, ip administered daily for 11 days by photographic analysis; type: functional, organism-based; conditions: time 11.0 day
[29] = system: HCT-116; experiment: Induction of apoptosis in human HCT-116 cells assessed as increase in PARP activation level at 0.8 uM measured after 24 hrs by Western blot analysis; type: functional, cell-based
[30] = system: HCT-116; experiment: Antitumor activity against human HCT-116 cells xenografted in SPF-grade Balb/c nude mouse model assessed as tumor growth inhibition at 12 mg/kg, ip administered daily for 11 days relative to control; type: functional; conditions: HCT-116, 264 h, time 11 day, read-out: TGI
[31] = system: MGC-803; experiment: Antiproliferative activity against human MGC-803 cells assessed as reduction in cell viability incubated for 48 hrs by MTT assay; type: functional, cell-based; conditions: MGC-803, 48 h
[32] = system: HCT-116; experiment: Cell cycle arrest in human HCT-116 cells assessed as accumulation of cells at G2/M phase at 0.4 to 0.8 uM incubated for 24 hrs by PI staining based flow cytometric analysis; type: functional; conditions: dose 0.4-0.8 µM
[33] = system: HCT-116; experiment: Cell cycle arrest in human HCT-116 cells assessed as increase in p21 expression at 0.8 uM incubated for 24 hrs by Western blot analysis; type: functional, cell-based
[34] = system: HCT-116; experiment: Induction of apoptosis in human HCT-116 cells assessed as morphological changes at 0.4 to 0.8 microM measured after 48 hrs by microscopic analysis; type: functional, cell-based; conditions: dose 0.4-0.8 µM
[35] = system: HCT-116; experiment: Induction of apoptosis in human HCT-116 cells assessed as increase in caspase-3 cleavage level at 0.2 to 0.8 uM incubated for 24 hrs by Western blot analysis; type: functional, cell-based; conditions: dose 0.2-0.8 µM
[36] = system: HCT-116; experiment: Antitumor activity against human HCT-116 cells xenografted in SPF-grade Balb/c nude mouse model assessed as inhibition of tumor cell growth at 12 mg/kg, ip administered daily for 11 days by H and E staining based analysis; type: functional, organism-based; conditions: time 11.0 day
[37] = Cytotoxicity against HUVEC cells assessed as reduction in cell viability incubated for 48 hrs by MTT assay; type: toxicity, cell-based; conditions: human
[38] = system: HCT-116; experiment: Induction of apoptosis in human HCT-116 cells assessed as morphological changes at 0.4 to 0.8 microM measured after 24 hrs by microscopic analysis; type: functional, cell-based; conditions: dose 0.4-0.8 µM
[39] = system: HCT-116; experiment: Antitumor activity against human HCT-116 cells xenografted in SPF-grade Balb/c nude mouse model assessed as tumor growth inhibition at 33.86 mg/kg, ip administered daily for 11 days relative to control; type: functional; conditions: HCT-116, 264 h, time 11 day, read-out: TGI
[40] = system: HCT-116; experiment: Antitumor activity against human HCT-116 cells xenografted in SPF-grade Balb/c nude mouse model assessed as reduction in tumor size at 33.86 to 45.17 mg/kg, ip administered daily for 11 days by photographic analysis; type: functional, organism-based; conditions: dose 33.86-45.17 mg/kg, time 11.0 day
[41] = Toxicity in SPF-grade Balb/c nude mouse xenografted with human HCT-116 cells assessed as average body weight at 33.86 to 45.17 mg/kg, ip measured after 10 days; type: organism-based; conditions: in vivo, 240 h, dose 33.86-45.17 mg/kg, time 10 day
[42] = system: HCT-116; experiment: Antitumor activity against human HCT-116 cells xenografted in SPF-grade Balb/c nude mouse model assessed as inhibition of tumor cell growth at 33.86 to 45.17 mg/kg, ip administered daily for 11 days by H and E staining based analysis; type: functional, organism-based; conditions: dose 33.86-45.17 mg/kg, time 11.0 day

IC50 [6] [µM] | IC50 [8] [µM] | IC50 [12] [µM] | IC50 [21] [µM] | IC50 [23] [µM] | IC50 [31] [µM] | Compound | Activity [1] | inhibition [2] | inhibition [3] | Activity [5] | IC50 at 48 h [9] [µM] | inhibition [10] | Activity [11] | Activity [14] | Activity [16] | Activity [17] | Activity [24] | Activity [25] | Activity [29] | IC50 at 48 h [37] [µM] | further results
> 100 | 0.8 | 26.6 | 10.1 | 0.33 | 20.6 | COc1ccc(CN2C(=O)C(=O)c3cc(-c4ccc(O)cc4)ccc32)cc1 | Active | Active | Active | Active | 13.9 | Active | Active | Active | Active | Active | Active | Active | Active | 18.1 | Activity [4]: Active; Activity [7]: Active; Activation Of Intrinsic Apoptotic Pathway Observed; Activity [13]: Active; Activation Of Intrinsic Apoptotic Pathway Observed; inhibition in vivo at 45.17 mg/kg [15]: 61%; inhibition [18]: Active; Activity [19]: Active; Activation Of P53-Medisted Signaling Observed; Activity [20]: ~ 10 g; Activity [22]: Active; Activity [26]: Active; Activity [27]: Active; Activation Of P53-Medisted Signaling Observed; Activity [28]: Active; inhibition in vivo at 12 mg/kg [30]: 49%; Activity [32]: Active; Activity [33]: Active; Activity [34]: Active; More Evident Apoptotic State Observed; Activity [35]: Active; Activity [36]: Active; Activity [38]: Active
> 100 | 0.47 | 15.2 | 3.62 | 0.263 | 58.2 | COc1ccc(CN2C(=O)C(=O)c3cc(-c4ccc(OC)cc4)cc([N+](=O)[O-])c32)cc1 | – | – | – | – | 1.21 | – | – | – | – | – | – | – | – | 10.6 | –
> 100 | 89.4 | > 100 | 13.7 | > 100 | > 100 | COc1ccc(CN2C(=O)C(=O)c3cc(-c4ccc(OC)cc4)cc(N)c32)cc1 | – | – | – | – | > 100 | – | – | – | – | – | – | – | – | > 100 | –
– | – | – | – | 0.23 | – | COc1ccc(CN2C(=O)C(=O)c3cc(-c4ccc(OC(=O)CCC(=O)NCCCC[C@H](NC(C)=O)C(=O)N5CCC[C@H]5C(=O)N[C@@H](CO)C(=O)N[C@@H](CO)C(=O)N5CCC[C@H]5C(=O)N5CCC[C@H]5C(=O)N[C@@H](CCC(=O)O)C(=O)N[C@@H](CCC(=O)O)C(N)=O)cc4)ccc32)cc1 (Ac-K(X1)PSSPPEE-NH2) | Active | Active | Active | Active | – | Active | Active | Active | Active | Active | Active | Active | Active | 43 | inhibition in vivo at 33.86 mg/kg [39]: 47%; Activity [40]: Active; Activity [32]: Active; Activity [41]: ~ 10 g; Activity [33]: Active; Activity [34]: Active; More Evident Apoptotic State Observed; Activity [42]: Active; Activity [38]: Active
43 | 0.31 | 51.4 | 10.1 | 0.768 | 19 | COc1ccc(CN2C(=O)C(=O)c3cc(-c4ccc(OC)cc4)ccc32)cc1 | – | – | – | – | 10.5 | – | – | – | – | – | – | – | – | 27.2 | –
> 100 | 0.81 | 40.4 | 34.7 | 0.786 | 29.2 | COc1ccc(CN2C(=O)C(=O)c3cc(-c4ccc(CO)cc4)ccc32)cc1 | – | – | – | – | 12.6 | – | – | – | – | – | – | – | – | 18.8 | –
